# Measured values taken from patent US7960422B2, “Pharmaceutically active compounds containing tetrazolyl and triazolyl rings” (AstraZeneca AB, priority 2007, dated 2011).
# Target: T1, human mGluR5d (Homo sapiens, UniProt P41594)
# T1 construct: expressed in transfected cells
# Assay: IP3 assay (phosphatidylinositol turnover, functional mGluR5 antagonism)
# Format: cell-based
# Settings: GHEK cells stably expressing human mGluR5d; glutamate (80 μM) or DHPG (30 μM) as agonist
# Description: Biological Evaluation Functional Assessment of mGluR5 Antagonism in Cell Lines Expressing mGluR5D
# The properties of the compounds of the invention can be analyzed using standard assays for pharmacological activity. Examples of glutamate receptor assays are well known in the art as described in for example Aramori et al., Neuron 8:757 (1992), Tanabe et al., Neuron 8:169 (1992), Miller et al., J. Neuroscience 15: 6103 (1995), Balazs, et al., J. Neurochemistry 69:151 (1997). The methodology described in these publications is incorporated herein by reference. Conveniently, the compounds of the invention can be studied by means of an assay (FLIPR) that measures the mobilization of intracellular calcium, [Ca^2+]i in cells expressing mGluR5 or another assay (IP3) that measures inositol phosphate turnover.
# An additional functional assay for mGluR5d is described in WO97/05252 and is based on phosphatidylinositol turnover. Receptor activation stimulates phospholipase C activity and leads to increased formation of inositol 1,4,5,triphosphate (IP3).
# GHEK stably expressing the human mGluR5d are seeded onto 24 well poly-L-lysine coated plates at 40×10^4 cells/well in media containing 1 μCi/well [3H] myo-inositol. Cells were incubated overnight (16 h), then washed three times and incubated for 1 h at 37° C. in HEPES buffered saline (146 mM NaCl, 4.2 mM KCl, 0.5 mM MgCl2, 0.1% glucose, 20 mM HEPES, pH 7.4) supplemented with 1 unit/ml glutamate pyruvate transaminase and 2 mM pyruvate. Cells are washed once in HEPES buffered saline and pre-incubated for 10 min in HEPES buffered saline containing 10 mM LiCl. Compounds are incubated in duplicate at 37° C. for 15 min, then either glutamate (80 μM) or DHPG (30 μM) is added and incubated for an additional 30 min. The reaction is terminated by the addition of 0.5 ml perchloric acid (5%) on ice, with incubation at 4° C. for at least 30 min. Samples are collected in 15 ml polyproplylene tubes and inositol phosphates are separated using ion-exchange resin (Dowex AG1-X8 formate form, 200-400 mesh, BIORAD) columns. Inositol phosphate separation was done by first eluting glycero phosphatidyl inositol with 8 ml 30 mM ammonium formate. Next, total inositol phosphates is eluted with 8 ml 700 mM ammonium formate/100 mM formic acid and collected in scintillation vials. This eluate is then mixed with 8 ml of scintillant and [3H] inositol incorporation is determined by scintillation counting. The dpm counts from the duplicate samples are plotted and IC50 determinations are generated using a linear least squares fitting program.
# T1 sequence (P41594 21-942 isoform P41594-3 limits assumed): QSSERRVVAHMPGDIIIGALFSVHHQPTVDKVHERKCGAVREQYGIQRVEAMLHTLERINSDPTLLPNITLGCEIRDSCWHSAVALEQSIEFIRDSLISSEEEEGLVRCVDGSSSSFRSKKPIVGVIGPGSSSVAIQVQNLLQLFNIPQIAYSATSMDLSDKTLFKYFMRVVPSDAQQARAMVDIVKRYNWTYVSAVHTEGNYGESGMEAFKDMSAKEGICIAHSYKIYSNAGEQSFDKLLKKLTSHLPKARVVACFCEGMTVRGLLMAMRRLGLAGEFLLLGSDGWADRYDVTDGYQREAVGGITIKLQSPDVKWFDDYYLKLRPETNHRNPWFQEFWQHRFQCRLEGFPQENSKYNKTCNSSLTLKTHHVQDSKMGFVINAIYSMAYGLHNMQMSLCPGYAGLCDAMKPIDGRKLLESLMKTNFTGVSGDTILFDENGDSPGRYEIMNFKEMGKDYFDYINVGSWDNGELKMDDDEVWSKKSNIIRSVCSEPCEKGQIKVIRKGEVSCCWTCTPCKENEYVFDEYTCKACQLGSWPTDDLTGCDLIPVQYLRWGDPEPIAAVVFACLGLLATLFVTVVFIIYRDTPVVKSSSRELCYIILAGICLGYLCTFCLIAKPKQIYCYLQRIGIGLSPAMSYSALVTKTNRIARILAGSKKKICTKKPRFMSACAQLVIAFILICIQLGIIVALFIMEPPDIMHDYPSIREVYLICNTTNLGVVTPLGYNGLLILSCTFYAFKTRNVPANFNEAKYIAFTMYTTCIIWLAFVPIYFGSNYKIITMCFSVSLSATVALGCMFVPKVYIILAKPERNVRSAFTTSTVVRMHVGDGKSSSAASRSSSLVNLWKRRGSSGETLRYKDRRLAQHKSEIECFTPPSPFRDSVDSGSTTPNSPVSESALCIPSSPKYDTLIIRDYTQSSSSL
row,IC50 [nM],Compound
1,36,"Cc1cccc(-n2nnc([C@@H](C)Oc3nnc(-c4ncccn4)n3C)n2)c1 [Example 10.1, 2-(4-methyl-5-{(1R)-1-[2-(3-methylphenyl)-2H-tetrazol-5-yl]ethoxy}-4H-1,2,4-triazol-3-yl)pyrimidine]"
2,25,"Cc1cccc(-n2nnc([C@@H](C)Oc3nnc(-c4cncnc4)n3C)n2)c1 [Example 10.2, 5-(4-methyl-5-{(1R)-1-[2-(3-methylphenyl)-2H-tetrazol-5-yl]ethoxy}-4H-1,2,4-triazol-3-yl)pyrimidine]"
3,23,Cc1cccc(-n2nnc([C@@H](C)Oc3nnc(-c4cccnc4)n3C)n2)c1 [Example 10.5]
4,20,"Cc1cccc(-n2nnc([C@@H](C)Oc3nnc(-c4ccnc(C)c4)n3C)n2)c1 [Example 10.4, 2-methyl-4-(4-methyl-5-{(1R)-1-[2-(3-methylphenyl)-2H-tetrazol-5-yl]ethoxy}-4H-1,2,4-triazol-3-yl)pyridine]"
5,22,"Cc1cccc(-n2nnc([C@@H](C)Oc3nnc(-c4cnc(C)cn4)n3C)n2)c1 [Example 10.3, 2-methyl-5-(4-methyl-5-{(1R)-1-[2-(3-methylphenyl)-2H-tetrazol-5-yl]ethoxy}-4H-1,2,4-triazol-3-yl)pyrazine]"
